Assay [1] deals with TcoAT1. The format is cell-based, Trypanosoma congolense. Particulars: for Ki: 0.05 µM [3H]-adenosine, 10 s, IC50 converted to Ki, read-out: Ki on the transport of [3H]-adenosine; for ΔG0: Gibbs free energy of binding, from Km or Ki; for δ(ΔG0): loss of Gibbs free energy of binding relative to the parent nucleoside. From the text:
(§1) The information for the T. congolense adenosine transporter (TcoAT1) and four putative T. vivax nucleoside transporters was obtained in the TritrypDB (tritrypdb.org/tritrypdb) genome database. Primers were designed to flank each gene upstream of the 5′ end (forward) and downstream of the 3′ end (reverse) as described (primer sequences in Supplementary Table S2). Following amplification from the genomic DNA of T. congolense or T. vivax, DNA for each extracted gene was ligated into the pNUS-HcN expression vector doubly digested with NdeI using the NEBuilder kit according to the manufacturer’s instructions (New England Biolabs). Construct was transformed into competent E. coli cells, and ligation was confirmed by restriction enzyme digestion of isolated plasmid DNA followed by Sanger sequencing (Source BioScience, Nottingham, UK). Confirmed plasmids were then transfected into L. mexicana cell line in which both NT1 and NT2 were doubly knocked out (SUPKO) and derived from L. mexicana Cas9 [64] as described. Clones grown in medium containing 50 μg/mL neomycin (G418) were collected for further confirmation by PCR with genomic DNA using a forward primer of the transporter gene and a reverse primer of the plasmid.
(§2) Uptake assays using radiolabeled trypanocides and/or nucleosides were carried out as described previously. Briefly, parasite cultures were harvested, washed twice in assay buffer (33 mM HEPES, 98 mM NaCl, 4.6 mM KCl, 0.5 mM CaCl2, 0.07 mM MgSO4, 5.8 mM NaH3PO4, 0.03 mM MgCl2, 23 mM NaHCO3, 14 mM D-glucose, pH 7.3), then resuspended and adjusted to a density of 1 × 10^8 cells/mL in assay buffer. The radiolabeled permeant in the presence or absence of different concentrations of potential inhibitors reconstituted in 100 μL assay buffer was deposited on top of 250 μL oil mix in microcentrifuge tubes; 1 × 10^7 parasites in 100 μL assay buffer were added to the tube and incubated for a pre-determined interval. The reaction was stopped by the addition of 1 mL of a high concentration of ice-cold unlabeled substrate in assay buffer (‘stop solution’) and centrifugation, or by immediate centrifugation at […] as appropriate. The microcentrifuge tubes were flash-frozen, and the bottom of each tube containing the cell pellet was cut off and transferred to a scintillation vial. Cell pellets were lysed in 2% SDS, after which scintillation fluid (Scintlogic U, Lablogic) was added, followed by overnight incubation in the dark. Scintillation was measured in a 300SL (Hidex) scintillation counter (Hidex). All the assays were conducted in triplicate and analysis was carried out using Microsoft Excel and GraphPad Prism. All kinetic parameters were obtained on at least 3 separate occasions.
(§3) The dose-dependent uptake assay allowed for the affinity of nucleoside analogs to different nucleoside transporters to be determined by measuring the extent to which the analogs compete with and inhibit the uptake of radiolabel adenosine. This allowed for the determination of biochemical parameters such as Km and Vmax through the application of the Michaelis–Menten equation V0 = Vmax([substrate]/([substrate] + Km)). The 50% Inhibitory Concentration (IC50) of the purines and pyrimidines and their analogs was determined from non-linear regression to sigmoid curves with variable slope (Prism 8), and the IC50 of the inhibitor and the Km of the labeled permeant were then used to calculate the inhibition constant (Ki) of the analogs through the Cheng–Prusoff equation: Ki = IC50/(1 + (L/Km)), where L denotes the radiolabel concentration. The calculated Ki was in turn used to determine the Gibbs free energy (ΔG^0) of the inhibitor–transporter interaction using the equation: ΔG^0 = -RTln(Ki), where R represents the gas constant and T symbolizes the absolute temperature in Kelvin [104].

Assay [2] addresses TvxNT3 (Trypanosoma vivax, UniProt F9WV62). Put plainly: cell-based. The format is cell-based. The settings on record: for ΔG0: Gibbs free energy of interaction, from Km or Ki; for δ(ΔG0): difference in ΔG0 relative to the parent purine (adenosine or inosine); for remaining activity at 100 µM: read-out: [3H]-adenosine uptake remaining in presence of inhibitor.
From the text: as §1, §2, §3

Assay [3] has as its system L. mexicana Cas9. Put plainly: Resazurin drug sensitivity assay, LmexCas9. The format is cell-based, Leishmania mexicana. The settings on record: read-out: LmexCas9 EC50. Here is the method:
(§4) EC50 values were determined by plotting to an equation for a sigmoid curve with variable slope (GraphPad Prism 8). All values were the average of at least three independent determinations on different days.
Background: The colour change of resazurin is a common sign of viable cells or microbes.

Assay [4] relates to L. mexicana SUPKO+TcoAT1. Put plainly: microbe, parasite or virus in culture. In kind it is cell-based, Leishmania mexicana. Particulars: for EC50: read-out: SUPKO+TcoAT1 EC50. Here is the method:
as §4

The subject of assay [5] is L. mexicana SUPKO+TvxNT3. Put plainly: microbe, parasite or virus in culture. In kind it is cell-based, Leishmania mexicana. The settings on record: for EC50: read-out: SUPKO+TvxNT3 EC50. Here is the method: as §4
For assay [6], the system named is L. mexicana SUPKO. Put plainly: microbe, parasite or virus in culture. The format is cell-based, Leishmania mexicana. Here is the method:
as §4

The target of assay [7] is T. congolense adenosine transporter. Description: [3H]-adenosine uptake and its inhibition in T. congolense IL3000 bloodstream forms. The format is cell-based, Trypanosoma congolense. Particulars: for Ki: 0.05 µM [3H]-adenosine, 30 s, IC50 converted to Ki, read-out: Ki on the transport of [3H]-adenosine; for ΔG0, Gibbs free energy of interaction: calculated from Km or Ki. How it is done:
as §2, §3

The target in assay [8] is T. b. brucei P1 (TbP1/NT2). The settings on record: cited from earlier work; for Ki: T. b. brucei bloodstream forms, read-out: Tbb P1 Ki.
Setting [9] is: Resistance Factor relative to SUPKO.
Where [10] appears, read: resazurin, promastigotes, read-out: SUPKO EC50.

Values joined by “and” are separate entries in the source; they are usually repeats but may differ in a detail not shown here. Identical values can stand only once. Like-named read-outs stand apart in the source and are kept apart here.

As usually defined, the Ki is the dissociation constant of the complex between target and ligand, obtained from inhibition or displacement. A word on the EC50: it is the concentration at which the effect is half-maximal.

TvxNT3, sequence (F9WV62 entry or part of it): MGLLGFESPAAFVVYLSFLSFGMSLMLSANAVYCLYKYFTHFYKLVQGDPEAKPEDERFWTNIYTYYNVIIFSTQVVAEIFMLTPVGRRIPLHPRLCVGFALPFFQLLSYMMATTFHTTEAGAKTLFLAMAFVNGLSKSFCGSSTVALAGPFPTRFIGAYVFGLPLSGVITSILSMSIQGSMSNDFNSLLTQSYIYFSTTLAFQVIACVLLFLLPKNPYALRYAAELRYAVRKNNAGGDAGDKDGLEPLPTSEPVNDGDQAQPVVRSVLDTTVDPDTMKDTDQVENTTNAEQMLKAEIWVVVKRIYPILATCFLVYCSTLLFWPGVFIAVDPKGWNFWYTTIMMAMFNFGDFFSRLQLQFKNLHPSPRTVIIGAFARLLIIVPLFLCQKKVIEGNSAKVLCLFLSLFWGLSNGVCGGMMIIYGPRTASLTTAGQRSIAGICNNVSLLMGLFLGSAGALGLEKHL

For the compound `Nc1ccnc2c1ncn2[C@@H]1O[C@H](CO)[C@@H](O)[C@H]1O` [1-deazaadenosine], in assay [1], the Ki turned out to be 1.03 ± 0.34 µM, the ΔG0 is -8.17 kcal/mol and the “δ(ΔG0)” value is 0.535 kcal/mol.

As for `Nc1ncnc2c1ncn2[C@H]1CC[C@@H](CO)O1` [2′,3′-dideoxyadenosine], in assay [1], the Ki was 51.9 ± 2.6 µM, the ΔG0 is -5.83 kcal/mol and the “δ(ΔG0)” value amounted to 2.856 kcal/mol.

Take `OC[C@@H]1CC[C@H](n2cnc3c(O)ncnc32)O1` [2′,3′-dideoxyinosine]: in assay [1], the Ki is 85.4 ± 7.1 µM, the ΔG0 was -5.54 kcal/mol and the “δ(ΔG0)” value was 2.99 kcal/mol.

In the case of `Nc1ncnc2c1ncn2[C@H]1C[C@H](O)[C@@H](CO)O1` [2′-deoxyadenosine], in assay [1], the Ki came to 0.5 ± 0.07 µM, the ΔG0 is -8.6 kcal/mol and the “δ(ΔG0)” value was 0.105 kcal/mol. Moreover, in assay [2], the ΔG0 is -8.15 kcal/mol and the “δ(ΔG0)” value was found to be 0.167 kcal/mol.

For `Nc1nccc2c1ncn2[C@@H]1O[C@H](CO)[C@@H](O)[C@H]1O` [3-deazaadenosine], in assay [1], the Ki was found to be 138 ± 37 µM; the ΔG0 is -5.26 kcal/mol; the “δ(ΔG0)” value is 3.44 kcal/mol and 3.435 kcal/mol.

In assay [2], `OC[C@H]1O[C@@H](n2cnc3c(O)nccc32)[C@H](O)[C@@H]1O` [3-deazainosine] had a ΔG0 of -6.12 kcal/mol.

For the compound `C[C@H]1O[C@@H](n2cnc3c(N)ncnc32)[C@H](O)[C@@H]1O` [5′-deoxyadenosine], in assay [1], the Ki was determined as 0.45 ± 0.08 µM, the ΔG0 was -8.65 kcal/mol and the “δ(ΔG0)” value came to 0.043 kcal/mol. Also, in assay [2], the ΔG0 is -8.13 kcal/mol and the “δ(ΔG0)” value is 0.151 kcal/mol.

`OC[C@H]1O[C@@H](n2cnc3c(S)ncnc32)[C@H](O)[C@@H]1O` [6-thioinosine] returned a ΔG0 in assay [2] of -7.36 kcal/mol.

In the case of `Nc1ncnc2[nH]cnc12` [Adenine], the Ki in assay [1] (listed as ADE) was determined as 786 µM. Also, in assay [1], the Ki was 761 ± 103 µM, the ΔG0 was -4.25 kcal/mol and the “δ(ΔG0)” value was found to be 4.446 kcal/mol. In assay [2], the ΔG0 was -7.658 kcal/mol, the “δ(ΔG0)” value is -0.32 kcal/mol and the remaining activity at 100 µM is under 25%. Besides, the “δ(ΔG0)” value in assay [2] (listed as adenine) was found to be 0.32 kcal/mol.

Take `COc1ncnc2c1ccn2[C@@H]1O[C@H](CO)[C@@H](O)[C@H]1O` [CL4510, 6-methoxy-7-deazapurine riboside]: the inhibitory constant (Ki) in assay [1] was 226 ± 26 µM; in assay [2] (50 nM [3H]-adenosine, 90 s, IC50 converted to Ki, read-out: Ki on the transport of [3H]-adenosine), 16.1 ± 2.8 µM. Moreover, the values for the ΔG0 in assay [1] and in assay [2] were -4.97 kcal/mol and -6.55 kcal/mol, respectively. Moreover, the EC50 in assay [3] (resazurin, promastigotes) was 0.39 ± 0.05 µM; in assay [4] (resazurin, promastigotes), 2.2 ± 0.03 µM; in assay [5] (resazurin, promastigotes), 2.05 ± 0.04 µM; in assay [6] (setting [10]), 2.3 µM and 2.28 µM. In addition, in assay [4] (setting [9]), the “SUPKO+TcoAT1 RF (SUPKO)” value amounted to 1.03. Further, the “SUPKO+TvxNT3 RF (SUPKO)” value in assay [5] (setting [9]) stood at 1.1. Also, the “SUPKO RF (Cas9)” value in assay [6] (Resistance Factor = EC50(SUPKO)/EC50(Cas9)) is recorded as 5.84.

`Nc1ccn([C@@H]2O[C@H](CO)[C@@H](O)[C@H]2O)c(=O)n1` [Cytidine]: in assay [7], the Ki was 1180 ± 148 µM and the “ΔG0, Gibbs free energy of interaction” value was -3.99 kcal/mol. Moreover, the “Ki values fold higher than those for the purines” value in assay [7] (inhibition of adenosine uptake) is on record as over 90 fold. In addition, the Ki in assay [8] is over 250 µM. In assay [1], the Ki stood at 1580 ± 69.2 µM, the ΔG0 was -3.82 kcal/mol and the “δ(ΔG0)” value stood at 4.878 kcal/mol.

As to `Nc1nc2c(ncn2[C@@H]2O[C@H](CO)[C@@H](O)[C@H]2O)c(=O)[nH]1` [Guanosine], in assay [7], the Ki is 1.06 ± 0.07 µM and the “ΔG0, Gibbs free energy of interaction” value was -8.15 kcal/mol. In addition, in assay [8], the inhibitory constant (Ki) was 1.8 ± 0.3 µM and the “Tbb P1 ΔG0” value was -7.82 kcal/mol. Moreover, in assay [1], the inhibition constant Ki came out at 0.8 ± 0.09 µM, the ΔG0 is -8.32 kcal/mol and the “δ(ΔG0)” value is 0.387 kcal/mol. For the same compound, in assay [2] (100 µM inhibitor, 50 nM [3H]-adenosine), the remaining activity at 100 µM is under 25%. Besides, in assay [2], the ΔG0 is -7.995 kcal/mol and the “δ(ΔG0)” value is 0.017 kcal/mol.

As to `O=c1[nH]cnc2nc[nH]c12` [Hypoxanthine], in assay [1], the Ki amounted to 61.2 ± 3.26 µM, the ΔG0 is -5.74 kcal/mol and the “δ(ΔG0)” value came out at 2.792 kcal/mol. For the same compound, in assay [2], the ΔG0 was -7.851 kcal/mol, the “δ(ΔG0)” value was -1.78 kcal/mol and the remaining activity at 100 µM was under 25%. For the same compound, the “δ(ΔG0)” value in assay [2] (listed as hypoxanthine) worked out at 1.34 kcal/mol.

As for `OC[C@H]1O[C@@H](n2cnc3cncnc32)[C@H](O)[C@@H]1O` [Nebularine], in assay [2], the ΔG0 is -7.27 kcal/mol. Besides, the results for the “δ(ΔG0)” value in assay [2] and in assay [2] (listed as nebularine) were -0.703 kcal/mol and 0.693 kcal/mol, respectively.

For the compound `Nc1ncnc2c1c(-c1ccccc1)cn2C1OC(CO)C(O)C1O` (centres unmarked) [TH1012, 7-phenyltubercidin], in assay [1], the Ki was found to be 146 ± 58 µM and the ΔG0 is -5.23 kcal/mol.

As to `NCCS[As](SCCN)c1ccc(Nc2nc(N)nc(N)n2)cc1` [melarsomine, reference compound], the EC50 in assay [3] (resazurin, promastigotes) was over 100 µM; in assay [4] (resazurin, promastigotes), over 100 µM; in assay [5] (resazurin, promastigotes), over 100 µM; in assay [6] (setting [10]) it was over 100 µM.

With `Cc1ccc(C(=O)Nc2ccc(S(=O)(=O)O)c3cc(S(=O)(=O)O)cc(S(=O)(=O)O)c23)cc1NC(=O)c1cccc(NC(=O)Nc2cccc(C(=O)Nc3cc(C(=O)Nc4ccc(S(=O)(=O)O)c5cc(S(=O)(=O)O)cc(S(=O)(=O)O)c45)ccc3C)c2)c1` [suramin, reference compound], the EC50 in assay [3] (Leishmania mexicana) is over 100 µM; in assay [4] (Leishmania mexicana), over 100 µM; in assay [5] (Leishmania mexicana), over 100 µM; in assay [6] (Leishmania mexicana, read-out: SUPKO EC50, resazurin, promastigotes), over 100 µM.

These data come from article PMC9960827, “Cloning and Characterization of Trypanosoma congolense and T. vivax Nucleoside Transporters Reveal the Potential of P1-Type Carriers for the Discovery of Broad-Spectrum Nucleoside-Based Therapeutics against Animal African Trypanosomiasis” (International Journal of Molecular Sciences, 2023).
